From the supplement of paper PMC10307832

Columns and labels:
Assay in all cases: relative viability (nuclei count vs DMSO), 5 days (fraction); higher = more cells survive
BEN = tested on: BEN
How it was run: (§1)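 One day after seeding in 1536-well plates, lung cancer cell lines were dosed by pin tool. Dosing was either single-drug or a fixed anchor-drug dose plus five library-drug doses (not always all listed) in √10 steps. After 5 days, nuclei were stained in one fix-and-stain step and counted on 4× images, and relative viability is the nuclei count of treated wells over that of vehicle wells, given as the median of duplicate plates.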

EPLC-272H = tested on: EPLC-272H
How it was run: as §1

HCC-827 = tested on: HCC-827
How it was run: as §1

HOP-62 = tested on: HOP-62
How it was run: as §1

LU99A = tested on: LU99A
How it was run: as §1

NCI-H1355 = tested on: NCI-H1355
How it was run: as §1

NCI-H1666 = tested on: NCI-H1666
How it was run: as §1

NCI-H1792 = tested on: NCI-H1792
How it was run: as §1

NCI-H1975 = tested on: NCI-H1975
How it was run: as §1

NCI-H2170 = tested on: NCI-H2170
How it was run: as §1

NCI-H23 = tested on: NCI-H23
How it was run: as §1

NCI-H2405 = tested on: NCI-H2405
How it was run: as §1

NCI-H3122 = tested on: NCI-H3122
How it was run: as §1

NCI-H322M = tested on: NCI-H322M
How it was run: as §1

NCI-H358 = tested on: NCI-H358
How it was run: as §1

NCI-H520 = tested on: NCI-H520
How it was run: as §1

NCI-H596 = tested on: NCI-H596
How it was run: as §1

NCI-H647 = tested on: NCI-H647
How it was run: as §1

NCI-H838 = tested on: NCI-H838
How it was run: as §1

PC-14 = tested on: PC-14
How it was run: as §1

UMC-11 = tested on: UMC-11
How it was run: as §1

## O=c1[nH]c2ccccc2n1C1CCN(CCCC(c2ccc(F)cc2)c2ccc(F)cc2)CC1 [Pimozide] + Nc1nc2[nH]cc(CCc3ccc(C(=O)N[C@@H](CCC(=O)O)C(=O)O)cc3)c2c(=O)[nH]1 [Pemetrexed] (partner 0.2 µM)
BEN; first compound 0.08 µM
  relative viability: 0.856
BEN; first compound 0.253 µM
  relative viability: 0.689
BEN; first compound 0.8 µM
  relative viability: 0.766
BEN; first compound 2.53 µM
  relative viability: 0.708
BEN; first compound 8 µM
  relative viability: 0.837
EPLC-272H; first compound 0.08 µM
  relative viability: 0.319
EPLC-272H; first compound 0.253 µM
  relative viability: 0.285
EPLC-272H; first compound 0.8 µM
  relative viability: 0.271
EPLC-272H; first compound 2.53 µM
  relative viability: 0.179
EPLC-272H; first compound 8 µM
  relative viability: 0.238
HCC-827; first compound 0.253 µM
  relative viability: 0.228
HCC-827; first compound 0.8 µM
  relative viability: 0.258
HCC-827; first compound 2.53 µM
  relative viability: 0.289
HCC-827; first compound 8 µM
  relative viability: 0.254
HOP-62; first compound 0.08 µM
  relative viability: 0.275
HOP-62; first compound 0.253 µM
  relative viability: 0.362
HOP-62; first compound 2.53 µM
  relative viability: 0.283
HOP-62; first compound 8 µM
  relative viability: 0.284
LU99A; first compound 0.08 µM
  relative viability: 0.277
LU99A; first compound 0.8 µM
  relative viability: 0.179
LU99A; first compound 2.53 µM
  relative viability: 0.185
LU99A; first compound 8 µM
  relative viability: 0.191
NCI-H1355; first compound 0.08 µM
  relative viability: 1.07
NCI-H1355; first compound 0.253 µM
  relative viability: 1.01
NCI-H1355; first compound 0.8 µM
  relative viability: 0.878
NCI-H1355; first compound 2.53 µM
  relative viability: 1.03
NCI-H1355; first compound 8 µM
  relative viability: 1.01
NCI-H1666; first compound 0.08 µM
  relative viability: 0.808
NCI-H1666; first compound 0.253 µM
  relative viability: 0.809
NCI-H1666; first compound 0.8 µM
  relative viability: 0.834
NCI-H1666; first compound 2.53 µM
  relative viability: 0.891
NCI-H1666; first compound 8 µM
  relative viability: 0.782
NCI-H1792; first compound 0.08 µM
  relative viability: 0.822
NCI-H1792; first compound 0.253 µM
  relative viability: 0.786
NCI-H1792; first compound 0.8 µM
  relative viability: 0.43
NCI-H1792; first compound 2.53 µM
  relative viability: 0.727
NCI-H1792; first compound 8 µM
  relative viability: 0.356
NCI-H1975; first compound 0.08 µM
  relative viability: 0.309
NCI-H1975; first compound 0.253 µM
  relative viability: 0.261
NCI-H1975; first compound 0.8 µM
  relative viability: 0.305
NCI-H1975; first compound 2.53 µM
  relative viability: 0.28
NCI-H1975; first compound 8 µM
  relative viability: 0.283
NCI-H2170; first compound 0.08 µM
  relative viability: 0.273
NCI-H2170; first compound 0.253 µM
  relative viability: 0.242
NCI-H2170; first compound 0.8 µM
  relative viability: 0.263
NCI-H2170; first compound 2.53 µM
  relative viability: 0.258
NCI-H2170; first compound 8 µM
  relative viability: 0.258
NCI-H23; first compound 0.08 µM
  relative viability: 0.64
NCI-H23; first compound 0.253 µM
  relative viability: 0.716
NCI-H23; first compound 0.8 µM
  relative viability: 0.609
NCI-H23; first compound 2.53 µM
  relative viability: 0.59
NCI-H23; first compound 8 µM
  relative viability: 0.591
NCI-H2405; first compound 0.08 µM
  relative viability: 0.968
NCI-H2405; first compound 0.253 µM
  relative viability: 1.09
NCI-H2405; first compound 0.8 µM
  relative viability: 1.05
NCI-H2405; first compound 2.53 µM
  relative viability: 0.989
NCI-H2405; first compound 8 µM
  relative viability: 0.88
NCI-H3122; first compound 0.08 µM
  relative viability: 0.238
NCI-H3122; first compound 0.253 µM
  relative viability: 0.206
NCI-H3122; first compound 0.8 µM
  relative viability: 0.178
NCI-H3122; first compound 2.53 µM
  relative viability: 0.195
NCI-H3122; first compound 8 µM
  relative viability: 0.2
NCI-H322M; first compound 0.08 µM
  relative viability: 0.571
NCI-H322M; first compound 0.253 µM
  relative viability: 0.668
NCI-H322M; first compound 0.8 µM
  relative viability: 0.622
NCI-H322M; first compound 2.53 µM
  relative viability: 0.604
NCI-H322M; first compound 8 µM
  relative viability: 0.609
NCI-H358; first compound 0.08 µM
  relative viability: 0.171
NCI-H358; first compound 0.253 µM
  relative viability: 0.178
NCI-H358; first compound 0.8 µM
  relative viability: 0.159
NCI-H358; first compound 2.53 µM
  relative viability: 0.172
NCI-H358; first compound 8 µM
  relative viability: 0.147
NCI-H520; first compound 0.08 µM
  relative viability: 0.651
NCI-H520; first compound 0.253 µM
  relative viability: 0.723
NCI-H520; first compound 0.8 µM
  relative viability: 0.739
NCI-H520; first compound 2.53 µM
  relative viability: 0.734
NCI-H520; first compound 8 µM
  relative viability: 0.575
NCI-H596; first compound 0.08 µM
  relative viability: 0.538
NCI-H596; first compound 0.253 µM
  relative viability: 0.487
NCI-H596; first compound 0.8 µM
  relative viability: 0.534
NCI-H596; first compound 2.53 µM
  relative viability: 0.436
NCI-H596; first compound 8 µM
  relative viability: 0.479
NCI-H647; first compound 0.08 µM
  relative viability: 0.186
NCI-H647; first compound 0.253 µM
  relative viability: 0.188
NCI-H647; first compound 0.8 µM
  relative viability: 0.175
NCI-H647; first compound 2.53 µM
  relative viability: 0.2
NCI-H647; first compound 8 µM
  relative viability: 0.128
NCI-H838; first compound 0.08 µM
  relative viability: 0.251
NCI-H838; first compound 0.253 µM
  relative viability: 0.242
NCI-H838; first compound 0.8 µM
  relative viability: 0.238
NCI-H838; first compound 2.53 µM
  relative viability: 0.236
NCI-H838; first compound 8 µM
  relative viability: 0.221
PC-14; first compound 0.253 µM
  relative viability: 0.14
PC-14; first compound 0.8 µM
  relative viability: 0.14
PC-14; first compound 2.53 µM
  relative viability: 0.0963
PC-14; first compound 8 µM
  relative viability: 0.063
UMC-11; first compound 0.08 µM
  relative viability: 0.82
UMC-11; first compound 0.253 µM
  relative viability: 0.681
UMC-11; first compound 0.8 µM
  relative viability: 0.748
UMC-11; first compound 2.53 µM
  relative viability: 0.772
UMC-11; first compound 8 µM
  relative viability: 0.725
